This is an account of results in US6602861B1, “Acylated phospholipid drugs” (Research Corporation Technologies, Inc., priority 1992, dated 2003).

“Also recorded” adds a separate entry of the source. Read-outs that look alike come from different tables or passages of the source. Some results are limits rather than exact numbers.

Broadly, the IC50 is the concentration at which inhibition is half-maximal. The term CC50 denotes the concentration at which the toxic effect on the cells reaches its halfway point. A low value points to harm at low concentration. Usually half-life stands for the time needed for the level to fall by half in the phase considered. A lower half-life goes with fast loss.

The nature of data set [1]: in vitro. How it is done: Stability of Anti-HIV Phlospholipids in Fresh Blood at 38° C.
Drug development using phospholipids will require that the parent compound is stable in blood. […] L-PE1 and L-PE2 are identical except that the methylene group in the 13 position of the sn-2 alkyl chain has been replaced with an oxygen atom.

For data set [2], the system named is HIV. The experiment in a line: Anti-HIV activity of D-AC2 and PE analogs compared with 12MO (FIG. 7). The class given is cell-based.
In data set [3] the test system is HIV infected MT4 cells. Briefly: Synergism with AZT in syncytial cell assays (FIG. 6). The class given is cell-based. Conditions: for increase in activity (shift in dose response curve) when AZT was added: plus 0.5 nM AZT. On the procedure:
(§1) Briefly, the assay was performed as follows. On Day 0, MT4 cells were infected with HIV. On Day 3, mix 10^3-10^4 infected cells (resuspend cells at 10^4-10^5 cells/ml so that the desired number of cells is in a volume of 100 μl) with 10^5 SupT1 cells (suspended at 10^6/ml, so that there are 10^5 cells per 100 μl) in a 96 well plate. Infected cells are titered to find the optimum number of syncytial cells to count. Cells are counted either manually or by flow cytometry. […] The time intervals for other cell lines may vary. To assay drugs that block syncytia formation, 50 μl SupT1, 50 μl infected (MT4) cells (total cell number is the same), and 100 μl of drug are present.

Data set [4] deals with HIV-1 (3B). Briefly: HIV-1 p24 antigen capture assay in infected monocyte-derived macrophages. Conditions: for dose response behaviour in MDM: 1-100 μM; for inhibition of HIV p24 antigen production in MDM: 50 μM. The class given is cell-based.
Data set [5] relates to HIV. The experiment in a line: microbe, parasite or virus in culture. How it is done: as §1
Data set [6] relates to HIV (S5G7, subclone of HTLVIIIB). The experiment in a line: microbe, parasite or virus in culture. Type of data set: cell-based. Conditions: 7 days after infection, read-out: IC50 50% Reduction in Reverse Transcriptase Activity PBMC.
Data set [7] deals with bee venom phospholipase A2 (PLA2) (Apis mellifera, UniProt P00630).
Chain of bee venom phospholipase A2 (PLA2) (P00630 34-167 limits assumed): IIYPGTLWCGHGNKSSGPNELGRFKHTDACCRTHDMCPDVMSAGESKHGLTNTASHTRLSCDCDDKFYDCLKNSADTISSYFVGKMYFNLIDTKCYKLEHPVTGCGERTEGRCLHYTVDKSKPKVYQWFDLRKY
Data set [8] has as its system PBMC. Briefly: Drug cytotoxicity MTT assay (TC50), PBMC. Type of data set: cell-based. Conditions: PBMC cells, absence of HIV. How it is done: (§2) Three assays for anti-HIV activity were used and the IC50 was calculated from these assays; (i) syncytial cell assays, (ii) reverse transcriptase assays, and (iii) direct […]. In addition, direct drug cytotoxicity was tested ‘as a control’ in each assay which merely means that the drug was dosed to the cells without virus present. This control assured that only the antiviral effect of the compound is measured. However, this drug cytotoxicity was not used to calculate the TC50 because the TC50 required doses of drug that were higher than the effective concentrations. Thus the TC50 is the dose of drug that kills 50% of the cells without virus present and was measured in MTT assays using the same cells type to evaluate antiviral activity. The therapeutic index was calculated from TC50/IC50. The ability of anti-HIV phospholipids to inhibit direct cytopathic effect caused by HIV infection was also measured.
(§3) MT4 cells were plated in 96-well microtiter plates at 8×10^4 cells/well in a volume of 90 μl. [Note: To compare TC50 to IC50, the same cell type used in antiviral assays was tested in the MTT assay; for these experiments, MT4 cells were used to evaluate the syncytial cell assays and PBMC's were used to compare the PBMC/RT assay]. To this was added one minimum cytotoxic dose of HIV in a volume of 10 μl. […] Plates were read on an ELISA reader at Abs 570 nm. […]
For orientation: Tetrazolium assays rely on reduction of a dye to a coloured formazan, in cell work by metabolically active cells.

For data set [9], the system named is MT4 cells. Briefly: Drug cytotoxicity MTT assay (TC50), uninfected MT4 cells. The class given is cell-based. On the procedure: as §2
(§4) MT4 cells were plated in 96-well microtiter plates at 8×10^4 cells/well in a volume of 90 μl. [Note: To compare TC50 to IC50, the same cell type used in antiviral assays was tested in the MTT assay; for these experiments, MT4 cells were used to evaluate the syncytial cell assays and PBMC's were used to compare the PBMC/RT assay]. To this was added one minimum cytotoxic dose of HIV in a volume of 10 μl. The test drug was added in 100 μl aliquots at several concentrations. A control plate using uninfected MT4 cells was set up simultaneously to assess cytotoxicity due to the drug alone. The plates were then incubated for five days at 37° C. Then the media was aspirated from the wells and replaced with 100 μl MTT solution (3-(4,5-dimethylthiazol-2-yl)-2,5-di-phenyltetrazolium bromide, 1 mg/ml in PBS) and incubated for 4 hours at 37° C. The plates were then centrifuged to pellet the cells, and the supernatants were removed (centrifugation can be omitted if the supernatants are removed carefully). […] Plates were read on an ELISA reader at Abs 570 nm. […]

Data set [10] is described as follows: Liposome formation in aqueous buffers. The class given is physicochemical. The source says: The increased activity of L-AC1 in MDM compared to CEM cells may be due to the phagocytosis of L-AC1 liposomes in MDM.
The test system of data set [11] is CEM cells.
Data set [12] deals with HIV-1. Conditions: CEM cells.
Source text: The S5G7 strain of HIV was used. S5G7 is a subclone of HTLVIIIB grown in H9 cells, and highly virulent regarding T cell infectivity, but less so for monocytes; this strain was obtained from Abbott Laboratories.
This assay measures the ability of a drug to inhibit the HIV virus from killing cells. CEM cells were used for this assay.
The T-cell HIV inhibition assay method of acutely infected cells is an automated tetrazolium based calorimetric assay adapted from Novak, et al., Aids Res. and Human Retroviruses, 6, 973 (1990). Assays were performed in 96-well tissue culture plates. CEM cells were grown in RPMI-1640 medium (Gibco) supplemented with 10% fetal calf serum and were then treated with polybrene (2 μg/ml). A 80 μl volume of medium containing 1×10^4 cells was dispensed into each well of the tissue culture plate. To each well was added a 100 μl volume of test compound dissolved in tissue culture medium (or medium without test compound as a control) to achieve the desired final concentration and the cells were incubated at 37° C. for 1 hour. A frozen culture of HIV-1 was diluted in culture medium to a concentration of 5×10^6 TCID50 per ml (TCID50=the dose of virus that infects 50% of cells in tissue culture), and a 20 μl volume of the virus sample (containing 1000 TCID50 of virus) was added to wells containing test compound and to wells containing only medium (infected control cells). […] Several wells received culture medium without virus (uninfected control cells). Azidothymidine (AZT) was tested as a positive drug control.
Following the addition of virus, cells were incubated at 37° C. in a humidified, 5% CO2 atmosphere for 7 days. Additional aliquots of test compounds were added on days 2 and 5. On day 7 post-infection, the cells in each well were resuspended and a 100 μl sample of each cell suspension was removed for assay. […] The absorbance of each sample was determined at 590 nm using a Molecular Devices microplate reader. The % reduction of the virus induced cytopathic effect (CPE) by the test compounds was calculated from the equation.
In data set [13] the test system is CEM cells. Briefly: Direct cytotoxicity of compounds to CEM cells without virus. Conditions: for direct cytotoxicity to CEM cells: no virus.
Data set [14] concerns HIV infected MT4 cells. The note with it: literature report; cited from earlier work.
Data set [15] concerns monocyte-derived macrophages (MDM). Briefly: Toxicity seen in the macrophage p24 experiment. Conditions: 100 μM.
The conditions of data set [16]: delivered to cells as a free fatty acid; cited from earlier work.
A short description of data set [17]: Drug cytotoxicity MTT assay (TC50), PBMC. The class given is cell-based. Conditions: human, uninfected; PBMC cells, absence of HIV. On the procedure: as §2, §3
The nature of data set [18]: Drug cytotoxicity MTT assay (TC50), uninfected MT4 cells. The class given is cell-based. The note with it: human, uninfected MT4 cells; MT4 cells, absence of HIV. On the procedure: as §2, §4

On to “1,2-(di-12-methoxydodecanoyl)-sn-3-phosphatidylcholine [L-AC2]”, for which, in data set [1], the “halflife in fresh blood” value amounted to 4.56 h. For the same molecule, the IC50 is roughly 1 µM in [2]; 1 µM in data set [5] (read-out: IC50 50% Reduction in syncytial cell formation MT4 cells, HIV infected MT4 cells, SupT1 target cells); roughly 1 µM in data set [5] (read-out: IC50 50% Reduction in syncytial cell formation MT4 cells, HIV infected MT4 cells, SupT1 target cells, listed as AC2); roughly 4 µM in data set [6] (PBMC, listed as AC2); 6 µM in data set [6] (PBMC). Also, the “activity alone in syncytial cell assay” value in data set [3] (5 nM) and in data set [3] (10 nM) was “inactive” throughout. Also, the “inhibition of syncytia formation” value in data set [3] (5 nM L-AC2 plus 0.5 nM AZT, HIV infected MT4 cells) was roughly 50%. In addition, in [3] (compared with 12MO and AZT, FIG. 6), the “synergistic effects with AZT” value was “increased synergistic effects”. The “increase in activity (shift in dose response curve) when AZT was added” value in data set [3] is “approximately 100 fold”. Moreover, the “inhibition of HIV infection in macrophages (p24 antigen)” value (“inhibition of HIV infection” for short) in data set [4] (1 μM, 15 day acute infection) is reported as “completely suppressed”; in [4] (1 μM, 15 day acute infection, listed as AC2), “completely effective”; in data set [4] (all doses tested (1-100 μM)) it was “completely inhibited”. In addition, the “dose response behaviour in MDM” value in data set [4] is on record as “No dose response was observed”. Moreover, in data set [4] (comparison in words), the “potency in HIV infected MDM compared with 12MO” value is reported as “significantly more potent”. Also, the “hydrolysis by PLA2” value in [7] is given as “quantitatively hydrolyzed”. The CC50 is 220 µM in [8] and 280 µM in data set [9] (MT4 cells, absence of HIV). In data set [9] (uninfected MT4 cells, AZT 50 nM to 500 nM), the “TC50 in the presence of AZT” value is “unchanged”. In addition, in data set [10], the liposome formation entry is on record as “formed liposomes”.
In the case of “1-(12-methoxydodecanoyl)-sn-3-glycerophosphatidylcholine [lysoAC2]”, in [11], the “toxicity compared with the other analogs” value is listed as “significantly less toxic”. Further, the IC50 in data set [12] (read-out: IC50, reduction of virus induced cytopathic effect (CPE), 7 days, FIG. 1) was roughly 100 µM.
Take “1-myristoyl-2-(12-methoxydodecan-oyl)-sn-3-phosphalidylcholine [AC1]”: the “toxicity compared with the other analogs” value in data set [11] is given as “significantly less toxic”. Besides, the “inhibition of HIV p24 antigen production in MDM” value in data set [4] is “completely suppressed”. Besides, the “inhibition of HIV infection” value in data set [4] (100 μM) is “almost complete inhibition”. In addition, the “dose response behaviour in MDM” value in data set [4] (listed as L-AC1) is recorded as “dose responsive activity”. Moreover, the “activity in direct cytopathic assay” value in data set [12] (50 μM) was “little activity”. Besides, the “anti-HIV activity with the active fatty acid anchored in the sn-2 position” value in [12] (FIG. 1, in words) is “significantly reduced the activity”. Also, the liposome formation entry in data set [10] is “formed liposomes”.
Take `COCCCCCCCCCCCC(=O)O` [12MO, 12-methoxydodecanoic acid, reference compound]: the entries for the “direct cytotoxicity to CEM cells” value in data set [13] (40 μM) and in [13] (dose up to 400 μM) were “showed toxicity” and “toxic”, respectively. For the same molecule, the “toxicity compared with the other analogs” value in data set [13] (CEM cells, comparison in words) was “most toxic analog tested in this series”. In addition, the “synergism when administered concurrently with AZT (reported)” value in [14] is given as “act synergistically”. The “toxicity in macrophage experiment” value in [15] was “toxic”. In addition, the “T2 for incorporation into triglycerides and membrane lipids” value in [16] was 1 to 2 min. Moreover, the “increase in activity (shift in dose response curve) when AZT was added” value in data set [3] is recorded as less than 10 fold. The “inhibition of HIV p24 antigen production in MDM” value in data set [4] is “little activity”. The “activity in MDM” value in data set [4] (100 μM) was roughly 100%. Moreover, the “inhibition of HIV infection” value in data set [4] (100 μM) was “completely suppressed; also recorded: suppressed HIV replication”; in data set [4] (doses from 1 to 50 μM (below 100 μM)) it was “little activity”. In addition, in data set [4], the “dose response behaviour in MDM” value was “very steep dose response effect”. In addition, the IC50 in [5] (Human immunodeficiency virus 1, read-out: IC50 50% Reduction in syncytial cell formation MT4 cells, HIV infected MT4 cells, SupT1 target cells) is roughly 4 µM; in data set [6] (Human immunodeficiency virus 1, PBMC, 168 h) it was roughly 12 µM; in [6] (PBMC), 19 µM. In addition, the “Therapeutic Index MT4 cells (TC50/IC50)” value in data set [5] (MT4 cells, syncytial cell assay) is 35. Further, the CC50 at 5 days in data set [17] stood at 340 µM; in [18] it was 140 µM.
Molecule `CCCCCCCCCCCCCC(=O)OC[C@H](COP(=O)(O)OCCN)OC(=O)CCCCCCCCCCCOC` [L-PE1, 1-Myristoyl-2-[12-methoxydodecanoyl]-sn-glycero-3-phosphoethanolamine] showed a half-life in [1] greater than 50 h. This molecule displayed an IC50 in data set [2] (Human immunodeficiency virus 1) of 6 µM.
For the molecule `COCCCCCCCCCCCC(=O)OC[C@H](COP(=O)(O)OCCN)OC(=O)CCCCCCCCCCCOC` [L-PE2, 1,2 di-(12-Methoxydodecanoyl)-sn-glycero-3-phosphoethanolamine], in data set [1], the half-life was 9.36 h. In addition, in data set [2], the “anti-HIV activity relative to 12MO” value was greater than 100 fold. Also, inhibition in [2] (Human immunodeficiency virus 1) was half-maximal at 0.02 µM (IC50).
